Results from ChEMBL document CHEMBL1201862, “PubChem BioAssay data set” (2004).
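The compound was tested at five concentrations on cells cultured in 96-well plates, with a 48-hour exposure period. The concentration for 50% growth inhibition is given as GI50.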 Calls of active or inactive are those of the source. Cut-off read from the data, not from the text of the source: active = GI50 up to about 1.1 µM and inactive = higher.

Columns and labels:
Assay in all cases: growth of human tumour cells (NCI), 48 h
SF-295 = system: SF-295
M14 = system: M14
HT-29 = system: HT-29
T47D = system: T47D
HCT-15 = system: HCT-15
OVCAR-8 = system: OVCAR-8
SNB-19 = system: SNB-19
K562 = system: K562
UO-31 = system: UO-31
SF-268 = system: SF-268
HOP-92 = system: HOP-92
MCF7 = system: MCF7
PC-3 = system: PC-3
OVCAR-4 = system: OVCAR-4
TK-10 = system: TK-10
SR = system: SR
ACHN = system: ACHN
NCI/ADR-RES = system: NCI/ADR-RES
A549 = system: A549
UACC-62 = system: UACC-62
Hs-578T = system: Hs-578T
NCI-H23 = system: NCI-H23
SN12C = system: SN12C
SF-539 = system: SF-539
MOLT-4 = system: MOLT-4
SW-620 = system: SW-620
EKVX = system: EKVX
NCI-H460 = system: NCI-H460
HCC 2998 = system: HCC 2998
IGROV-1 = system: IGROV-1
LOX IMVI = system: LOX IMVI
HOP-62 = system: HOP-62
COLO 205 = system: COLO 205
HL-60 = system: HL-60
A498 = system: A498
SK-OV-3 = system: SK-OV-3
CCRF-CEM = system: CCRF-CEM
U-251 = system: U-251
RPMI-8226 = system: RPMI-8226
Malme-3M = system: Malme-3M
MDA-MB-435 = system: MDA-MB-435
NCI-H522 = system: NCI-H522
MDA-N = system: MDA-N
UACC-257 = system: UACC-257
DU-145 = system: DU-145
NCI-H226 = system: NCI-H226
SK-MEL-28 = system: SK-MEL-28
MDA-MB-231 = system: MDA-MB-231
KM12 = system: KM12
RXF 393 = system: RXF 393
OVCAR-3 = system: OVCAR-3
OVCAR-5 = system: OVCAR-5
BT-549 = system: BT-549
786-0 = system: 786-0
SK-MEL-5 = system: SK-MEL-5
SNB-75 = system: SNB-75
CAKI-1 = system: CAKI-1
SK-MEL-2 = system: SK-MEL-2
HCT-116 = system: HCT-116

O=P(O)(CCP(=O)(O)c1ccccc1)c1ccccc1
GI50 (SF-295): > 100 µM (inactive)
GI50 (M14): > 100 µM (inactive)
GI50 (HT-29): > 100 µM (inactive)
GI50 (T47D): > 100 µM (inactive)
GI50 (HCT-15): > 100 µM
GI50 (OVCAR-8): > 100 µM (inactive)
GI50 (SNB-19): > 100 µM (inactive)
GI50 (K562): > 100 µM (inactive)
GI50 (UO-31): > 100 µM (inactive)
GI50 (SF-268): > 100 µM (inactive)
GI50 (HOP-92): > 100 µM (inactive)
GI50 (MCF7): > 100 µM (inactive)
GI50 (PC-3): > 100 µM (inactive)
GI50 (OVCAR-4): > 100 µM (inactive)
GI50 (TK-10): > 100 µM (inactive)
GI50 (SR): > 100 µM (inactive)
GI50 (ACHN): > 100 µM (inactive)
GI50 (NCI/ADR-RES): > 100 µM (inactive)
GI50 (A549): > 100 µM (inactive)
GI50 (UACC-62): > 100 µM (inactive)
GI50 (Hs-578T): > 100 µM (inactive)
GI50 (NCI-H23): > 100 µM (inactive)
GI50 (SN12C): > 100 µM (inactive)
GI50 (SF-539): > 100 µM (inactive)
GI50 (MOLT-4): > 100 µM (inactive)
GI50 (SW-620): > 100 µM (inactive)
GI50 (EKVX): > 100 µM (inactive)
GI50 (NCI-H460): > 100 µM (inactive)
GI50 (HCC 2998): > 100 µM (inactive)
GI50 (IGROV-1): > 100 µM (inactive)
GI50 (LOX IMVI): > 100 µM (inactive)
GI50 (HOP-62): > 100 µM (inactive)
GI50 (COLO 205): > 100 µM (inactive)
GI50 (HL-60): > 100 µM (inactive)
GI50 (A498): > 100 µM (inactive)
GI50 (SK-OV-3): > 100 µM (inactive)
GI50 (CCRF-CEM): > 100 µM (inactive)
GI50 (U-251): > 100 µM (inactive)
GI50 (RPMI-8226): > 100 µM (inactive)
GI50 (Malme-3M): > 100 µM (inactive)
GI50 (MDA-MB-435): > 100 µM (inactive)
GI50 (NCI-H522): > 100 µM (inactive)
GI50 (MDA-N): > 100 µM (inactive)
GI50 (UACC-257): > 100 µM (inactive)
GI50 (DU-145): > 100 µM (inactive)
GI50 (NCI-H226): > 100 µM (inactive)
GI50 (SK-MEL-28): > 100 µM (inactive)
GI50 (MDA-MB-231): > 100 µM (inactive)
GI50 (KM12): > 100 µM (inactive)
GI50 (RXF 393): > 100 µM (inactive)
GI50 (OVCAR-3): > 100 µM (inactive)
GI50 (OVCAR-5): > 100 µM (inactive)
GI50 (BT-549): > 100 µM (inactive)
GI50 (786-0): > 100 µM (inactive)
GI50 (SK-MEL-5): > 100 µM (inactive)
GI50 (SNB-75): > 100 µM (inactive)
GI50 (CAKI-1): > 100 µM (inactive)
GI50 (SK-MEL-2): > 100 µM (inactive)
GI50 (HCT-116): > 100 µM (inactive)

CC(O)CC(=O)CO[C@H]1[C@H](O)[C@@H](O)[C@@H](O)[C@@H]2NC(=O)c3c(cc4c(c3O)OCO4)[C@H]21 (some centres not stated)
GI50 (SF-295): 0.0299 µM (active)
GI50 (M14): 0.0361 µM (active)
GI50 (HT-29): 0.0258 µM (active)
GI50 (T47D): 0.0222 µM (active)
GI50 (HCT-15): 0.256 µM
GI50 (OVCAR-8): 0.0332 µM (active)
GI50 (SNB-19): < 0.0156 µM (active)
GI50 (K562): 0.0392 µM (active)
GI50 (UO-31): 0.115 µM (active)
GI50 (SF-268): 0.0222 µM (active)
GI50 (HOP-92): 0.0377 µM (active)
GI50 (MCF7): 0.0194 µM (active)
GI50 (PC-3): 0.0272 µM (active)
GI50 (OVCAR-4): 0.0483 µM (active)
GI50 (TK-10): 0.0353 µM (active)
GI50 (SR): 0.0335 µM (active)
GI50 (ACHN): 0.0391 µM (active)
GI50 (NCI/ADR-RES): 1.29 µM (inactive)
GI50 (A549): 0.042 µM (active)
GI50 (UACC-62): 0.0541 µM (active)
GI50 (Hs-578T): 0.0398 µM (active)
GI50 (NCI-H23): 0.0335 µM (active)
GI50 (SN12C): 0.0266 µM (active)
GI50 (SF-539): 0.0214 µM (active)
GI50 (MOLT-4): 0.0313 µM (active)
GI50 (SW-620): 0.109 µM (active)
GI50 (EKVX): 0.0266 µM (active)
GI50 (NCI-H460): 0.0275 µM (active)
GI50 (HCC 2998): 0.0181 µM (active)
GI50 (IGROV-1): < 0.0207 µM (active)
GI50 (LOX IMVI): 0.0208 µM (active)
GI50 (HOP-62): 0.0289 µM (active)
GI50 (COLO 205): 0.0332 µM (active)
GI50 (HL-60): 0.0386 µM (active)
GI50 (A498): 0.0218 µM (active)
GI50 (SK-OV-3): 0.0617 µM (active)
GI50 (CCRF-CEM): 0.0184 µM (active)
GI50 (U-251): < 0.015 µM (active)
GI50 (RPMI-8226): 0.0226 µM (active)
GI50 (Malme-3M): 0.0118 µM (active)
GI50 (MDA-MB-435): 0.0386 µM (active)
GI50 (NCI-H522): 0.0242 µM (active)
GI50 (MDA-N): 0.0366 µM (active)
GI50 (UACC-257): 0.0397 µM (active)
GI50 (DU-145): 0.0214 µM (active)
GI50 (NCI-H226): 0.0499 µM (active)
GI50 (SK-MEL-28): < 0.0201 µM (active)
GI50 (MDA-MB-231): 0.054 µM (active)
GI50 (KM12): 0.0316 µM (active)
GI50 (RXF 393): 0.0208 µM (active)
GI50 (OVCAR-3): 0.0457 µM (active)
GI50 (OVCAR-5): 0.0711 µM (active)
GI50 (BT-549): 0.0509 µM (active)
GI50 (786-0): 0.0439 µM (active)
GI50 (SK-MEL-5): 0.0137 µM (active)
GI50 (SNB-75): 0.0472 µM (active)
GI50 (CAKI-1): 0.512 µM (active)
GI50 (SK-MEL-2): 0.0363 µM (active)
GI50 (HCT-116): 0.0264 µM (active)

CN(C)CCC(=O)[C@@]1(O)CC[C@H]2[C@@H]3CC=C4C[C@@H](O)CC[C@]4(C)[C@H]3CC[C@@]21C
GI50 (SF-295): 24.9 µM (inactive)
GI50 (M14): 18.2 µM (inactive)
GI50 (HT-29): 18.9 µM (inactive)
GI50 (T47D): 4.11 µM (inactive)
GI50 (HCT-15): 20.1 µM
GI50 (OVCAR-8): 20.2 µM (inactive)
GI50 (SNB-19): 25.6 µM (inactive)
GI50 (K562): 18.2 µM (inactive)
GI50 (UO-31): 15.6 µM (inactive)
GI50 (SF-268): 16.9 µM (inactive)
GI50 (HOP-92): 20.9 µM (inactive)
GI50 (MCF7): 4.38 µM (inactive)
GI50 (PC-3): 13.4 µM (inactive)
GI50 (OVCAR-4): 33.4 µM (inactive)
GI50 (TK-10): 2.1 µM (inactive)
GI50 (SR): 12.6 µM (inactive)
GI50 (ACHN): 16.1 µM (inactive)
GI50 (NCI/ADR-RES): 26.7 µM (inactive)
GI50 (A549): 37.1 µM (inactive)
GI50 (UACC-62): 16.7 µM (inactive)
GI50 (Hs-578T): 20.7 µM (inactive)
GI50 (NCI-H23): 23.6 µM (inactive)
GI50 (SN12C): 16.9 µM (inactive)
GI50 (SF-539): 2.6 µM (inactive)
GI50 (MOLT-4): 13.9 µM (inactive)
GI50 (SW-620): 17.9 µM (inactive)
GI50 (EKVX): 20.7 µM (inactive)
GI50 (NCI-H460): 15.4 µM (inactive)
GI50 (HCC 2998): 21.3 µM (inactive)
GI50 (IGROV-1): 17.8 µM (inactive)
GI50 (LOX IMVI): 13.7 µM (inactive)
GI50 (HOP-62): 14.2 µM (inactive)
GI50 (COLO 205): 18.4 µM (inactive)
GI50 (HL-60): 17.4 µM (inactive)
GI50 (A498): 16.1 µM (inactive)
GI50 (SK-OV-3): 29.8 µM (inactive)
GI50 (CCRF-CEM): 5.25 µM (inactive)
GI50 (U-251): 17.3 µM (inactive)
GI50 (RPMI-8226): 1.58 µM (inactive)
GI50 (Malme-3M): 15.3 µM (inactive)
GI50 (MDA-MB-435): 18.2 µM (inactive)
GI50 (NCI-H522): 11.9 µM (inactive)
GI50 (MDA-N): 17.7 µM (inactive)
GI50 (UACC-257): 13.3 µM (inactive)
GI50 (DU-145): 6.65 µM (inactive)
GI50 (NCI-H226): 62.8 µM (inactive)
GI50 (SK-MEL-28): 17.2 µM (inactive)
GI50 (MDA-MB-231): 18.5 µM (inactive)
GI50 (KM12): 15.1 µM (inactive)
GI50 (RXF 393): 9.2 µM (inactive)
GI50 (OVCAR-3): 9.02 µM (inactive)
GI50 (OVCAR-5): > 61.5 µM (inactive)
GI50 (BT-549): 17.9 µM (inactive)
GI50 (786-0): 3.68 µM (inactive)
GI50 (SK-MEL-5): 29.9 µM (inactive)
GI50 (SNB-75): 15.2 µM (inactive)
GI50 (CAKI-1): 17.5 µM (inactive)
GI50 (SK-MEL-2): 15.9 µM (inactive)
GI50 (HCT-116): 18 µM (inactive)
